In patent US20080194546A1, “Pyrido-, Pyrazo- and Pyrimido-Pyrimidine Derivatives as mTOR Inhibitors” (KuDOS Pharmaceuticals Limited, priority 2005, published 2008):

The molecules below were run against T1, mTOR (Homo sapiens, UniProt P42345) (assay: Biological Assay: mTOR enzyme activity, mTOR immunoprecipitated from HeLa cell cytoplasmic extract, recombinant PHAS-1 as substrate). Settings: Biological Assay, upper bounds; read-out: IC50 values against mTOR.
T1 construct: mTOR protein was isolated from HeLa cell cytoplasmic extract by immunoprecipitation; endogenous in cells; host or cells: HeLa cell cytoplasmic extract (immunoprecipitate)
Format: biochemical

IC50 [µM] | Structure (SMILES)
< 0.1 | COc1ccc(-c2ccc3c(N4CCOCC4)nc(N4C[C@@H](C)O[C@@H](C)C4)nc3n2)cc1CNCc1cccs1 [Example 8j]

These molecules were tested on phosphorylation of Serine 473 in Akt in MDA-MB-468 cells (assay: In Vitro phospho-Ser473 Akt Assay (Acumen Explorer)). Settings: Homo sapiens, MDA-MB-468, read-out: IC50 values against mTOR (phospho-Ser473 Akt assay).
Format: cell-based

Structure (SMILES) | IC50 [µM]
CNc1nc(N2CCOC[C@@H]2C)c2ccc(-c3ccc(OC)c(CO)c3)nc2n1 [28 bp] | < 11
C[C@H]1COCCN1c1nc(N2CCOC[C@@H]2C)c2ccc(-c3ccc(F)nc3)nc2n1 [Example 11ah] | < 11
CNC(=O)c1ccc(-c2ccc3c(N4CCOC[C@@H]4C)nc(N4CCOC[C@@H]4C)nc3n2)cc1 [Example 11ak] | < 0.1
C[C@H]1COCCN1c1nc(N2CCOC[C@@H]2C)c2ccc(-c3ccncc3)nc2n1 [Example 11ar] | < 11
C[C@H]1COCCN1c1nc(N2CCOC[C@@H]2C)c2ccc(-c3ccnc(F)c3)nc2n1 [Example 11au] | < 11
C[C@H]1COCCN1c1nc(N2CCOC[C@@H]2C)c2ccc(-c3cccc(C#N)c3)nc2n1 [Example 11aw] | < 11
C[C@H]1COCCN1c1nc(N2CCOC[C@@H]2C)c2ccc(-c3ccc(N)cc3)nc2n1 [Example 11az] | < 0.1
C[C@H]1COCCN1c1nc(N2CCOC[C@@H]2C)c2ccc(-c3cccc(C(=O)N4CCN(C)CC4)c3)nc2n1 [Example 11bf] | < 11
C[C@H]1COCCN1c1nc(N2CCOC[C@@H]2C)c2ccc(-c3cccnc3)nc2n1 [Example 11bu] | < 11
C[C@@H]1CN(c2nc(N3CCOC[C@@H]3C)c3ccc(-c4ccncc4)nc3n2)C[C@H](C)O1 [Example 11ce] | < 11
C[C@H]1COCCN1c1nc(N2CCOC[C@@H]2C)c2ccc(-c3ccc4nc[nH]c(=O)c4c3)nc2n1 [Example 11cl] | < 11
CC(C)Oc1ccc(-c2ccc3c(N4CCOC[C@@H]4C)nc(N4CCOC[C@@H]4C)nc3n2)cc1C(N)=O [Example 11cw, 5-[2,4-bis-((S)-3-methyl-morpholin-4-yl)-pyrido[2,3-d]pyrimidin-7-yl]-2-isopropoxy-benzamide] | < 11
C[C@@H]1CN(c2nc(N3CCOC[C@@H]3C)c3ccc(-c4ccccc4)nc3n2)C[C@H](C)O1 [Example 11j] | < 0.3
COc1ccc(-c2ccc3c(N4CCOC[C@@H]4C)nc(N4CCOC[C@@H]4C)nc3n2)cn1 [Example 11n] | < 0.3
C[C@H]1COCCN1c1nc(N2CCCC(CO)C2)nc2nc(-c3cccc(C(N)=O)c3)ccc12 (stereo partly shown) [Example 12d] | < 11
C[C@H]1COCCN1c1nc(N2CCC(c3ccncc3)CC2)nc2nc(-c3ccc(N)nc3)ccc12 [Example 12e] | < 11
C[C@H]1COCCN1c1nc(N2CCC(CO)CC2)nc2nc(-c3cccc(C(N)=O)c3)ccc12 [Example 12h] | < 11
C[C@H]1COCCN1c1nc(N2CCOC[C@@H]2C)c2ccc(-c3cccc(C(=O)NCC(F)(F)F)c3)nc2n1 [Example 13f] | < 11
C[C@H]1COCCN1c1nc(N2CCOC[C@@H]2C)c2ccc(-c3cccc(C(=O)N4CC[C@@H](O)C4)c3)nc2n1 [Example 13g] | < 11

Structure (SMILES) | IC50 [µM]
CCN(C)C(=O)c1cc(-c2ccc3c(N4CCOC[C@@H]4C)nc(N4CCOC[C@@H]4C)nc3n2)ccc1OC [Example 13u] | < 11
C[C@H]1COCCN1c1nc(N2CCOC[C@@H]2C)c2ccc(-c3ccc(F)c(CNCCF)c3)nc2n1 [Example 14ab] | < 11
COCCN(C)Cc1cc(-c2ccc3c(N4CCOC[C@@H]4C)nc(N4CCOC[C@@H]4C)nc3n2)ccc1F [Example 14aj] | < 11
COc1ccc(-c2ccc3c(N4CCOC[C@@H]4C)nc(N4CCOC[C@@H]4C)nc3n2)cc1CNC1CC1 [Example 14al] | < 0.1
COc1ccc(-c2ccc3c(N4CCOCC4C)nc(N4CCOC[C@@H]4C)nc3n2)cc1CNC1CCOCC1 (stereo partly shown) [Example 14aq] | < 0.1
COc1ccc(CCNCc2cc(-c3ccc4c(N5CCOCC5C)nc(N5CCOC[C@@H]5C)nc4n3)ccc2OC)cc1 (stereo partly shown) [Example 14bd] | < 0.1
COc1ccc(-c2ccc3c(N4CCOCC4C)nc(N4CCOC[C@@H]4C)nc3n2)cc1CNC1CCCCCCC1 (stereo partly shown) [Example 14bf] | < 0.1
C[C@H]1COCCN1c1nc(N2CCOC[C@@H]2C)c2ccc(-c3cccc(CS(C)(=O)=O)c3)nc2n1 [Example 14t] | < 11
C[C@H]1COCCN1c1nc(N2CCOC[C@@H]2C)c2ccc(-c3ccc(F)c(CNC4CC4)c3)nc2n1 [Example 14v] | < 11
CC(C)C(=O)NCc1cccc(-c2ccc3c(N4CCOC[C@@H]4C)nc(N4CCOC[C@@H]4C)nc3n2)c1 [Example 15d] | < 11
CC(C)CC(=O)NCc1cccc(-c2ccc3c(N4CCOC[C@@H]4C)nc(N4CCOC[C@@H]4C)nc3n2)c1 [Example 15f] | < 11
CC(=O)N(C)Cc1ccc(-c2ccc3c(N4CCOC[C@@H]4C)nc(N4CCOC[C@@H]4C)nc3n2)cc1 [Example 15r] | < 11
CC(=O)NCc1cc(-c2ccc3c(N4CCOC[C@@H]4C)nc(N4CCOC[C@@H]4C)nc3n2)ccc1F [Example 15t] | < 11
COCC(=O)NCc1cc(-c2ccc3c(N4CCOC[C@@H]4C)nc(N4CCOC[C@@H]4C)nc3n2)ccc1F [Example 15u] | < 11
CC(C)C(=O)NCc1cc(-c2ccc3c(N4CCOC[C@@H]4C)nc(N4CCOC[C@@H]4C)nc3n2)ccc1F [Example 15w] | < 11
C[C@H]1COCCN1c1nc(N2CCOC[C@@H]2C)c2ccc(-c3ccc(F)c(CNC(=O)C4CCC4)c3)nc2n1 [Example 15x] | < 11
CC(C)CC(=O)NCc1cc(-c2ccc3c(N4CCOC[C@@H]4C)nc(N4CCOC[C@@H]4C)nc3n2)ccc1F [Example 15y] | < 11
C[C@H]1COCCN1c1nc(N2CCOC[C@@H]2C)c2ccc(-c3ccc(F)c(CNC(=O)C(F)(F)F)c3)nc2n1 [Example 15z] | < 11
C[C@H]1COCCN1c1nc(N2CCOC[C@@H]2C)c2ccc(-c3ccc(CNC4CC4)o3)nc2n1 [Example 17e] | < 11

Structure (SMILES) | IC50 [µM]
C[C@H]1COCCN1c1nc(N2CCOC[C@@H]2C)c2ccc(-c3ccc(CNc4cc[nH]n4)o3)nc2n1 [Example 17i] | < 11
C[C@H]1COCCN1c1nc(N2CCOC[C@@H]2C)c2ccc(-c3ccc(CNCC(N)=O)o3)nc2n1 [Example 17j] | < 11
Cc1ccc(-c2cnc3c(N4CCOC[C@@H]4C)nc(N4C[C@@H](C)O[C@@H](C)C4)nc3n2)cc1 [Example 22b] | < 11
COC(=O)[C@@H]1C[C@@H](O)CN1c1nc(N2CCOC[C@@H]2C)c2ccc(-c3ccc(OC)c(CO)c3)nc2n1 [Example 28aa] | < 11
COc1ccc(-c2ccc3c(N4CCOC[C@@H]4C)nc(N4CCC5CCCCC5C4)nc3n2)cc1CO (stereo partly shown) [Example 28ag] | < 11
COc1ccc(-c2ccc3c(N4CCOC[C@@H]4C)nc(N4CCC(N5CCCC5)CC4)nc3n2)cc1CO [Example 28ai] | < 11
COc1ccc(-c2ccc3c(N4CCOC[C@@H]4C)nc(N4CCC(Cc5ccccc5)CC4)nc3n2)cc1CO [Example 28al] | < 11
COC(=O)c1cncn1-c1nc(N2CCOC[C@@H]2C)c2ccc(-c3ccc(OC)c(CO)c3)nc2n1 [Example 28az] | < 11
COc1ccc(-c2ccc3c(N4CCOC[C@@H]4C)nc(NCCO)nc3n2)cc1CO [Example 28bs] | < 11
CNCCNc1nc(N2CCOC[C@@H]2C)c2ccc(-c3ccc(OC)c(CO)c3)nc2n1 [Example 28bv] | < 11
COCCNc1nc(N2CCOC[C@@H]2C)c2ccc(-c3ccc(OC)c(CO)c3)nc2n1 [Example 28by] | < 11
COc1ccc(-c2ccc3c(N4CCOC[C@@H]4C)nc(NCCN(C)C)nc3n2)cc1CO [Example 28cb] | < 11
COc1ccc(-c2ccc3c(N4CCOC[C@@H]4C)nc(N4CCN(CCO)CC4)nc3n2)cc1CO [Example 28ci] | < 0.3
COc1ccc(-c2ccc3c(N4CCOC[C@@H]4C)nc(NC(C)CN(C)C)nc3n2)cc1CO (stereo partly shown) [Example 28ct] | < 11
CCOc1nc(N2CCOC[C@@H]2C)c2ccc(-c3ccc(OC)c(CO)c3)nc2n1 [Example 28cv] | < 11
C[C@H]1CCCCN1c1nc(N2CCOC[C@@H]2C)c2ccc(-c3ccc(Cl)cc3)nc2n1 [Example 28de] | < 11
C[C@@H]1CCCCN1c1nc(N2CCOC[C@@H]2C)c2ccc(-c3ccc(Cl)cc3)nc2n1 [Example 28dg] | < 11
C[C@H]1COCCN1c1nc(N2CCC(C(N)=O)CC2)nc2nc(-c3ccc(Cl)cc3)ccc12 [Example 28dj] | < 11

Same assay, conditions: Homo sapiens; MDA-MB-468 cells, 2 hours; read-out: IC50, phospho-Ser473 Akt assay (cellular IC50, measured by pAkt)

IC50 [µM] | Structure (SMILES)
0.381 | C[C@H]1COCCN1c1nc(N2CCOC[C@@H]2C)c2ccc(-c3ccc4c(c3)C(=O)NCCN4)nc2n1 [Example 11df, 7-[2,4-bis-((S)-3-methyl-morpholin-4-yl)-pyrido[2,3-d]pyrimidin-7-yl]-1,2,3,4-tetrahydro-benzo[e][1,4]diazepin-5-one]
0.0141 | C[C@H]1COCCN1c1nc(N2CCOC[C@@H]2C)c2ccc(-c3cccc(N)c3)nc2n1 [Example 11dr, 3-[2,4-Bis-((S)-3-methyl-morpholin-4-yl)-pyrido[2,3-d]pyrimidin-7-yl]-phenylamine]
0.0607 | C[C@H]1COCCN1c1nc(N2CCOC[C@@H]2C)c2ccc(-c3ccc4[nH]nc(N)c4c3)nc2n1 [Example 11ds, 5-[2,4-Bis-((S)-3-methyl-morpholin-4-yl)-pyrido[2,3-d]pyrimidin-7-yl]-1H-indazol-3-ylamine]
0.505 | CC(C)S(=O)(=O)Nc1cccc(-c2ccc3c(N4CCOC[C@@H]4C)nc(N4CCOC[C@@H]4C)nc3n2)c1 [Example 25b]
0.682 | CNC(=O)C1CCN(c2nc(N3CCOC[C@@H]3C)c3ccc(-c4ccc(N)nc4)nc3n2)CC1 [Example 28dk]

Same assay, conditions: Homo sapiens; MDA-MB-468 cells, compounds of Formula I(B); read-out: IC50 values against mTOR (phospho-Ser473 Akt assay)

IC50 [µM] | Structure (SMILES)
< 0.1 | COc1ccc(-c2ccc3c(N4CCOC[C@@H]4C)nc(N4CCOC[C@@H]4C)nc3n2)cc1CO [Example 11a]
< 0.1 | CNC(=O)c1cccc(-c2ccc3c(N4CCOC[C@@H]4C)nc(N4CCOC[C@@H]4C)nc3n2)c1 [Example 11ap]
